The values below come from ChEMBL document CHEMBL1201862, “PubChem BioAssay data set” (2004).

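Tested at 5 concentrations; 48 h exposure; 96-well plates; endpoints linearly interpolated, else capped at highest concentration. Here, GI50 denotes the concentration required for 50% inhibition of growth.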 Active and inactive are the calls of the source. Rule as the data show it: active = GI50 up to about 1.1 µM and inactive = higher.

Test systems include DLD-1; SNB-78; DMS-273; M19-MEL; RXF 631; XF498; KM-20L2; HOP-18.
Holding throughout (assay): inhibition of tumour cell growth, NCI panel, 48 h

For the compound `COC1=CC(=O)NCCN1`, the GI50 is > 100 µM (inactive) with DLD-1; > 100 µM (inactive) in the assay with SNB-78; 78.7 µM (inactive) with DMS-273; > 100 µM (inactive) with M19-MEL; > 100 µM (inactive) with RXF 631; > 100 µM (inactive) in the assay with XF498. Besides, the GI50 in the assay with KM-20L2 and in the assay on HOP-18 was > 100 µM (inactive) throughout.

With `Nc1nc(=O)n(C2CC(O)C(O)C(CO)O2)cc1F` (stereo not given), the GI50 was > 100 µM (inactive) in the assay with DLD-1; > 100 µM (inactive) in the assay with SNB-78; > 100 µM (inactive) in the assay with M19-MEL; > 100 µM (inactive) in the assay on RXF 631; 61.4 µM (inactive) with XF498; > 100 µM (inactive) in the assay on KM-20L2. The GI50 with HOP-18 is > 100 µM (inactive).

For `N#Cc1c(C(N)=O)ncn1Cc1ccccc1`, the GI50 in the assay on DLD-1, in the assay with SNB-78, with DMS-273, in the assay with M19-MEL, with RXF 631 and with XF498 was > 100 µM (inactive) each time. In addition, the GI50 with KM-20L2 and in the assay on HOP-18 was > 100 µM (inactive) in each case.

As for `CCOC(=O)C1C(=O)CN2CCc3c([nH]c4ccccc34)C12C(=O)OCC` (stereo not given), the GI50 in the assay on DLD-1, with SNB-78, in the assay on DMS-273, with M19-MEL, with RXF 631 and in the assay on XF498 was > 100 µM (inactive) in each case. In addition, the GI50 with KM-20L2 was > 100 µM (inactive); in the assay with HOP-18, 72.8 µM (inactive).

Take `Cc1ccc(NC(=O)/C(=N\Nc2ccc([N+](=O)[O-])cc2[N+](=O)[O-])C2C(=O)NC(=O)NC2=O)cc1`: the GI50 in the assay with DLD-1 is 21.1 µM (inactive); with SNB-78, > 100 µM (inactive); with M19-MEL it was > 100 µM (inactive); in the assay with RXF 631, > 100 µM (inactive); in the assay with KM-20L2, 15.4 µM (inactive); in the assay with HOP-18 it was > 100 µM (inactive).

As for `CCOC(=O)CCC(NC(=O)c1ccc(/N=C/c2nc3ccccc3nc2-c2ccccc2)cc1)C(=O)OCC` (stereo not given), the GI50 with DLD-1, with SNB-78, in the assay on DMS-273, in the assay on RXF 631, in the assay with XF498 and in the assay with KM-20L2 was > 100 µM (inactive) throughout. In the assay on HOP-18, the GI50 was 35.4 µM (inactive).

In the case of `COC(=O)c1ncc2c(=O)[nH]c3ccccc3c2c1C(=O)OC`, the GI50 in the assay with DLD-1, in the assay on SNB-78, in the assay with DMS-273, in the assay with M19-MEL, in the assay on RXF 631 and in the assay on XF498 was > 100 µM (inactive) in each case. Also, the GI50 in the assay with KM-20L2 and in the assay on HOP-18 was > 100 µM (inactive) each time.

With `CC1(C)OC(=O)[C@@](C)([C@H](O)c2ccccc2)O1`, the GI50 was > 100 µM (inactive) with DLD-1; > 100 µM (inactive) in the assay with SNB-78; > 100 µM (inactive) with DMS-273; > 100 µM (inactive) in the assay on M19-MEL; 79.4 µM (inactive) in the assay on RXF 631; > 100 µM (inactive) in the assay with XF498. For the same compound, the GI50 in the assay on KM-20L2 was > 100 µM (inactive).

In the case of `CCOP1(=O)C=C(C)C(=C(Cl)Cl)C(C)=C1` (stereo not given), the GI50 in the assay on DLD-1 is 24 µM (inactive); with SNB-78 it was > 10 µM (inactive); in the assay with M19-MEL, 8.07 µM (inactive); with RXF 631, 5.87 µM (inactive); in the assay on XF498, 0.548 µM (active); in the assay on KM-20L2, 2.68 µM (inactive). In addition, in the assay with HOP-18, the GI50 was 13.8 µM (inactive).

`CN(C)CC(/C(Cc1ccccc1)=N\NC(=O)C[n+]1ccccc1)c1ccccc1` (stereo not given): the GI50 in the assay with SNB-78 was 53.2 µM (inactive); with DMS-273, 38.8 µM (inactive); in the assay on M19-MEL it was > 100 µM (inactive); with RXF 631, > 100 µM (inactive); with XF498, > 100 µM (inactive); in the assay with KM-20L2, > 100 µM (inactive). In addition, the GI50 in the assay with HOP-18 was > 100 µM (inactive).

In the case of `CCOCN1COCN/C1=N/C#N`, the GI50 in the assay on DLD-1, in the assay on SNB-78, with DMS-273, with RXF 631, with XF498 and in the assay with KM-20L2 was > 100 µM (inactive) each time. Moreover, the GI50 in the assay with HOP-18 is > 100 µM (inactive).

As to `CC(C)CCCC(C)[C@H]1CCC2[C@@H]3CCC4Nc5c(cnn5-c5ccccc5)C[C@]4(C)C3CC[C@@]21C` (stereo not given in full), the GI50 in the assay on DLD-1 is > 100 µM (inactive); with SNB-78 it was 18.7 µM (inactive); with DMS-273, 2.72 µM (inactive); in the assay on M19-MEL, 26.1 µM (inactive); in the assay with RXF 631 it was 13.1 µM (inactive); in the assay on XF498, 15.3 µM (inactive). In addition, the GI50 is 13.1 µM (inactive) in the assay on KM-20L2 and > 100 µM (inactive) in the assay with HOP-18.

For `COc1cccc(/C=C\c2cc(OC)c(OC)c(OC)c2)c1`, the GI50 in the assay with DLD-1 is 0.49 µM (active); in the assay on SNB-78, 1.24 µM (inactive); in the assay on DMS-273, 0.553 µM (active); with M19-MEL, 12.1 µM (inactive); in the assay on RXF 631, 0.836 µM (active); in the assay on XF498, 2.8 µM (inactive). Moreover, the GI50 in the assay with KM-20L2 was 0.37 µM (active).
